# Laboratory results as given in patent publication US20060234919A1, “Use” (priority 2001, published 2006).
# Like-named read-outs stand apart in the source and are kept apart here.
# Columns and labels:
# lipase = experiment: caerulein-induced pancreatitis, lipase activity in pancreatic tissue; assay type: in vivo, rat; conditions: 1 mg/ml s.c.; caerulein alone 4.87±0.72, control 0.24±0.26
# Protocol: (§1) Caerulein-induced pancreatitis: Female Sprague-Dawley rats (200-250 g) were anaesthetized with pentobarbitone sodium and phenobarbitone sodium (each 40 mg/kg, i.p.). The cholecystokinin analogue caerulein (8 nmol/kg in 2 h) was infused via one jugular vein for exocrine hyperstimulation and induction of acute edematous pancreatitis (Lampel M, Kern H F. Acute interstitial pancreatitis in the rat in-duced by excessive doses of a pancreatic secretagogue. Virchows Arch (Pathol Anat) 1997; 373: 97-117), while control animals were infused with a corresponding volume (4 ml/kg/h) of phosphate-buffered saline. Pre-treatment with the kininase II inhibitor captopril ([…], i. p.) was given 30 min prior to the infusion of caerulein. At the end of the experiment, the animals were sacrificed with an overdose of pentobarbital sodium. The pancreatic tissue was dried for 16 h in a vacuum centrifuge and the edema was quantified as fluid wt. per dry wt. of the tissue. For the determination of lipase activity in serum, the blood was collected following decapitation in separate groups of rats. The pancreas of these animals was excised an placed immediately into 2 ml of a 154 mmol/l solution of NaCl. After centrifugation at 2×10^5 m/s^2 for 25 min the supernatant was stored at −80° C. All samples were assayed for lipase activity (lipase test Boehringer Mannheim, Germany).
# [1] = tested on: ischaemic musculocutaneous skin flaps; conditions: previously shown by the inventors, cited from earlier work
# myeloperoxidase = experiment: carrageenan induced myeloperoxidase accumulation in the hindpaw; assay type: in vivo, rat; conditions: 1000 μg/kg s.c.; 6 hours after treatment; saline controls 5.4±1.1; p<0.01
# Protocol: The rats were treated s.c. with oxytocin (1000 μg/kg) (n=6) or saline (n=6) immediately before the carrageenan injection. The accumulation of myeloperoxidase in the rat right hindpaw was measured 6 hours after the treatment with oxytocin or saline, and carrageenan. To determine the recruitment of neutrophils in response to the carrageenan induced inflammation in the rat hindpaw, the paws were weighed and homogenised in 10 ml 0.5% hexadecyltrimethyl-ammonium bromide (Sigma Chemical Co, USA), and freeze-thawed, whereafter the myeloperoxidase activity of the supernatant was assessed. The enzyme activity was determined spectrophotometrically as the change in absorbance at 650 nm (25° C.) occuring in the redox reaction of H2O2-tetramethylbenzidine (Sigma Chemical Co, USA) catalysed by myeloperoxidase. Values are expressed as myeloperoxidase units/g tissue. […] The myeloperoxidase concentration (i.e. the neutrophil recruitment) in the hindpaw was 3.5±0.72 units/g tissue in the oxytocin-treated rats compared to 5.4±1.1 units/g in the saline-treated controls (p<0.01) (FIG. 6).
# [2] = tested on: caerulein-induced pancreatitis; experiment: caerulein-induced pancreatitis, pancreatic edema; assay type: in vivo, rat; conditions: subcutaneous pre-treatment 1 mg/ml; caerulein alone 8.11±0.96, control 3.12±0.52
# Protocol: as §1
# [3] = tested on: cyclophosphamide-induced cystitis; experiment: cyclophosphamide-induced cystitis, plasma protein extravasation (Evans blue); assay type: in vivo, rat; conditions: oxytocin pre-treatment, 4 h
# Protocol: Cyclophosphamide (100 mg/kg) was injected i.p. in barbiturate-anaesthetised rats for the induction of acute cystitis. Control animals were injected with an appropriate volume (4 ml/kg) of the vehicle (154 mmol/l NaCl). Five min prior to the administration of cyclophosphamide or vehicle all animals were injected i.v. with the protein marker, Evans blue (20 mg/kg). At 4 h, when increases in vascular permeability have reached maximum values in this model (Aramori I, Zenkoh J, Morikawa N, O'Donnell N. Asano M, Nakamur K et al. Novel subtype-selective nonpeptide bradykinin antagonists FR167334 and FR173657. Mol Pharmacol 1997; 51: 171-176), the uriny bladder was excised following exsanguination, and the total tissue content of Evans blue was determined as above.
# Plasma protein extravasation in the urinary bladder of anaesthetised rats was made 4 h after i.p. injection of cyclophosphamide (100 mg/kg). Control animals were treated with appropriate volumes of the vehicles ([…] silicone oil or 4 ml/kg 154 mmol/l NaCl solution, respectively). Oxytocin (1 mg/ml) was injected s. c. 1 h before administration of xylene or cyclophosphamide while control rats received DMSO (0.5 ml/kg, s. c.). Plasma protein extravasation is given as total tissue content of the protein marker, Evans blue, given i. v. (20 mg/kg) 5 min prior to the induction of cystitis. […]
substance,measurement,setting,value
Oxytocin,active lipase in the pancreatic tissue,lipase,1.34±0.29 U/mg
same,survival of ischaemic musculocutaneous skin flaps,[1]; 1 μg/kg i.c.v.,increases the survival
same,survival of ischaemic musculocutaneous skin flaps,[1]; 1 mg/kg s.c.,induced the same effect
same,myeloperoxidase concentration (neutrophil recruitment) in the hindpaw,myeloperoxidase,3.5±0.72 units/g tissue
same,water content of the pancreatic tissue (edema formation),[2],5.25±0.68 g/g d. wt.
same,"plasma protein extravasation, Evans blue accumulation in the bladder","[3]; cyclophosphamide 100 mg/kg i.p., cyclophosphamide alone 9.76±4.12",2.56 ± 1.28 mg
same,"plasma protein extravasation, Evans blue accumulation in the bladder",[3]; rats given the vehicle of cyclophosphamide,2.11 ± 1.37 mg
